# System: lung cancer cell lines (A549 and chemotherapy-resistant/metastatic H460)
# Assay: XTT proliferation assay, lung cancer cells
# Format: cell-based
# Conditions: DT 5, 10, 20 μM; gemcitabine hydrochloride and etoposide 10, 20 μM; 1-2 days; regardless of the dosage; also H460; FIG. 2
# Description: The prostate cancer cells were plated at a density of 10^3 or 3×10^3 per well, in a 96-well plate, in a medium containing 10% Fetal bovine serum (FBS) (Gibco®, commercially available from Life Technologies, USA). Once the prostate cancer cells were attached to the culture dish, the 10% FBS medium was replaced with a second 10% FBS medium and each of the prostate cancer cell line was treated with 1, 5, and 10 μM of DT respectively for 1-2 days. The absorbance was measured using XTT assay kit (commercially available from Roche, Switzerland) at 492 nm using an ELISA reader (Bio-Rad Laboratories, USA). An in vitro evaluation of the effect of DT, gemcitabine (a chemotherapeutic agent) and etoposide (a chemotherapeutic agent) on the lung cancer cells was performed. The lung cancer cell lines, chemotherapy-resistant/metastatic H460 lung cancer cells (with pleural metastasis) and A549 lung cancer cells, were purchased from Bioresource Collection and Research Center, Taiwan. […] The absorbance was measured using XTT assay kit at 492 nm using an ELISA reader.
compound,measurement,value
"Nc1ccn([C@@H]2O[C@H](CO)[C@@H](O)C2(F)F)c(=O)n1 [gemcitabine, reference compound]","inhibition of lung cancer proliferation, DT compared with gemcitabine and etoposide",DT is more effective than gemcitabine and etoposide
"COc1cc([C@@H]2c3cc4c(cc3[C@@H](O[C@@H]3O[C@@H]5CO[C@@H](C)O[C@H]5[C@H](O)[C@H]3O)[C@H]3COC(=O)[C@H]23)OCO4)cc(OC)c1O [etoposide, reference compound]","inhibition of lung cancer proliferation, DT compared with gemcitabine and etoposide",DT is more effective than gemcitabine and etoposide

# Reference: patent publication US10426755B2, “Methods for inhibiting cancer cells” (Chang Gung Memorial Hospital, Chiayi, priority 2015, dated 2019)
